# From patent US20170210738A1, “GLUCOSE TRANSPORT INHIBITORS” (Bayer Pharma Aktiengesellschaft, priority 2014, published 2017)
# Target: T1, GLUT1 (Homo sapiens, UniProt P11166)
# T1 construct: endogenous in cells; host or cells: DLD1 or CHO-K1
# T1 sequence (P11166 1-492): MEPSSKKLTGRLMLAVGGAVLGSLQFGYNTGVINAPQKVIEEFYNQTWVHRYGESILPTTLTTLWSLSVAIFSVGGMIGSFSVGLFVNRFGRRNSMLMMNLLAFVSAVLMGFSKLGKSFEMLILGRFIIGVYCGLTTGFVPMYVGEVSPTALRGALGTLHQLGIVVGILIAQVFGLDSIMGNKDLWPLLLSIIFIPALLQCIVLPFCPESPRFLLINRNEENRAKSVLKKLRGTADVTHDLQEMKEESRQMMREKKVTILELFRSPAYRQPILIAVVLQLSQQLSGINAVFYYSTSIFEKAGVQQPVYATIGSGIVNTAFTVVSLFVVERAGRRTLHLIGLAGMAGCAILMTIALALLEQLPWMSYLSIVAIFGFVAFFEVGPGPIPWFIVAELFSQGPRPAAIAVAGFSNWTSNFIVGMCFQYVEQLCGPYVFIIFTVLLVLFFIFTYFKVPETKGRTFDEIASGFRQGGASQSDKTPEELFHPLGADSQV
# Test: Indirect measurement of GLUT activity by quantification of intracellular ATP levels: glucose induced ATP increase (GLUT1 inhibition)
# Format: cell-based
# Details: DLD1 cells; 1 mM glucose, 1 uM Rotenone, 15 min; CellTiter-Glo ATP levels; IC50 values standardized to cytochalasin B IC50 values; read-out: IC50 regarding glucose induced ATP increase (GLUT1 inhibition)
# Description: Indirect Measurement of GLUT Activity by Quantification of Intracellular ATP Levels
# It is well known that a combination of small-molecule inhibitors of mitochondrial electron transport chain and glucose catabolism synergistically suppress ATP production and impair cellular viability (Ulanovskaya et al., 2008, 2011; Liu, et al. 2001). We therefore used DLD1 or CHO-K1 cells in combination with an oxidative phosphorylation inhibitor to identify GLUT inhibitors. Cell lines were maintained in DMEM medium supplemented with 10% FCS and 1% Penicillin-Streptomycin solution and 2% Glutamax. The cells were treated with trypsin and seeded into 384 plates at a density of 4000 cells/well. The cells were then cultured overnight in glucose free media containing 1% FCS to reduce intracellular ATP levels. After 24 h the cells were incubated at 37° C. containing the appropriate glucose or in case of GLUT2 fructose concentration (1 mM and 30 mM respectively) with or without compounds and 1 uM Rotenone for 15 min. The CellTiter-Glo® Luminescent Cell Viability Assay from Promega was then used to measure ATP levels. Compounds able to reduce the ATP levels within 15 min of glucose application were considered to be glucose uptake inhibitors.
row,Compound,IC50
1,"Cc1c(NC(=O)c2cc(C(F)(F)F)nc3cc(F)c(F)cc23)cnn1Cc1ccc(F)cc1 [Example 2, 6,7-difluoro-N-[1-(4-fluorobenzyl)-5-methyl-1H-pyrazol-4-yl]-2-(trifluoromethyl)quinoline-4-carboxamide]",124 nM
2,"COc1cc(C(=O)Nc2cnn(Cc3ccc(F)cc3)c2C)c2ccccc2n1 [Example 3, N-[1-(4-fluorobenzyl)-5-methyl-1H-pyrazol-4-yl]-2-methoxyquinoline-4-carboxamide]",152 nM
3,"Cc1c(NC(=O)c2cc(C(F)(F)F)nc3ccc(Br)cc23)cnn1Cc1ccc(F)cc1 [Example 4, 6-bromo-N-[1-(4-fluorobenzyl)-5-methyl-1H-pyrazol-4-yl]-2-(trifluoromethyl)quinoline-4-carboxamide]",12 nM
4,"Cc1c(NC(=O)c2cc(C(N)=O)nc3ccccc23)cnn1Cc1ccc(F)cc1 [Example 5, N^4-[1-(4-fluorobenzyl)-5-methyl-1H-pyrazol-4-yl]quinoline-2,4-dicarboxamide]",18 nM
5,"Cc1c(NC(=O)c2cc(C3CC3)nc3ccc(F)cc23)cnn1Cc1ccc(F)cc1 [Example 6, 2-cyclopropyl-6-fluoro-N-[1-(4-fluorobenzyl)-5-methyl-1H-pyrazol-4-yl]quinoline-4-carboxamide]",91 nM
6,"Cc1c(NC(=O)c2cc(C(F)(F)F)nc3c(Cl)cc(Cl)cc23)cnn1Cc1ccc(F)cc1 [Example 7, 6,8-dichloro-N-[1-(4-fluorobenzyl)-5-methyl-1H-pyrazol-4-yl]-2-(trifluoromethyl)quinoline-4-carboxamide]",185 nM
7,"Cc1c(NC(=O)c2cc(C(F)(F)F)nc3ccc(Br)cc23)cnn1Cc1ccc(C#N)cc1 [Example 8, 6-bromo-N-[1-(4-cyanobenzyl)-5-methyl-1H-pyrazol-4-yl]-2-(trifluoromethyl)quinoline-4-carboxamide]",12 nM
8,"Cc1c(NC(=O)c2cc(C(N)=O)nc3ccccc23)cnn1Cc1ccc(C#N)cc1 [Example 9, N^4-[1-(4-cyanobenzyl)-5-methyl-1H-pyrazol-4-yl]quinoline-2,4-dicarboxamide]",8.9 nM
9,"COc1ccc(Cn2ncc(NC(=O)c3cc(OC)nc4ccccc34)c2C)cc1 [Example 11, 2-methoxy-N-[1-(4-methoxybenzyl)-5-methyl-1H-pyrazol-4-yl]quinoline-4-carboxamide]",19 nM
10,"COc1ccc(Cn2ncc(NC(=O)c3cc(C(F)(F)F)nc4ccc(Br)cc34)c2C)cc1 [Example 12, 6-bromo-N-[1-(4-methoxybenzyl)-5-methyl-1H-pyrazol-4-yl]-2-(trifluoromethyl)quinoline-4-carboxamide]",4 nM
11,"COc1ccc(Cn2ncc(NC(=O)c3cc(C(N)=O)nc4ccccc34)c2C)cc1 [Example 13, N^4-[1-(4-methoxybenzyl)-5-methyl-1H-pyrazol-4-yl]quinoline-2,4-dicarboxamide]",2.2 nM
12,"Cc1c(NC(=O)c2cc(C(F)(F)F)nc3ccc(Br)cc23)cnn1Cc1ccccc1C#N [Example 14, 6-bromo-N-[1-(2-cyanobenzyl)-5-methyl-1H-pyrazol-4-yl]-2-(trifluoromethyl)quinoline-4-carboxamide]",173 nM
13,"Cc1c(NC(=O)c2cc(C(N)=O)nc3ccccc23)cnn1Cc1ccccc1C#N [Example 15, N^4-[1-(2-cyanobenzyl)-5-methyl-1H-pyrazol-4-yl]quinoline-2,4-dicarboxamide]",755 nM
14,"O=C(Nc1cnn(Cc2ccc(F)cc2)c1C(=O)O)c1cc(C(F)(F)F)nc2ccc(Br)cc12 [Example 17, 4-({[6-bromo-2-(trifluoromethyl)quinolin-4-yl]carbonyl}amino)-1-(4-fluorobenzyl)-1H-pyrazole-5-carboxylic acid]",10200 nM
15,"NC(=O)c1c(NC(=O)c2cc(C(F)(F)F)nc3ccc(Br)cc23)cnn1Cc1ccc(F)cc1 [Example 18, 6-bromo-N-[5-carbamoyl-1-(4-fluorobenzyl)-1H-pyrazol-4-yl]-2-(trifluoromethyl)quinoline-4-carboxamide]",1250 nM
16,"COC(=O)c1c(NC(=O)c2cc(C(F)(F)F)nc3ccc(Br)cc23)cnn1Cc1ccc(C#N)cc1 [Example 19, methyl 4-({[6-bromo-2-(trifluoromethyl)quinolin-4-yl]carbonyl}amino)-1-(4-cyanobenzyl)-1H-pyrazole-5-carboxylate]",1070 nM

row,Compound,IC50
1,"N#Cc1ccc(Cn2ncc(NC(=O)c3cc(C(F)(F)F)nc4ccc(Br)cc34)c2C(=O)O)cc1 [Example 20, 4-({[6-bromo-2-(trifluoromethyl)quinolin-4-yl]carbonyl}amino)-1-(4-cyanobenzyl)-1H-pyrazole-5-carboxylic acid]",10200 nM
2,"CNC(=O)c1c(NC(=O)c2cc(C(F)(F)F)nc3ccc(Br)cc23)cnn1Cc1ccc(C#N)cc1 [Example 21, 6-bromo-N-[1-(4-cyanobenzyl)-5-(methylcarbamoyl)-1H-pyrazol-4-yl]-2-(trifluoromethyl)quinoline-4-carboxamide]",3960 nM
3,"N#Cc1ccc(Cn2ncc(NC(=O)c3cc(C(F)(F)F)nc4ccc(Br)cc34)c2C(N)=O)cc1 [Example 22, 6-bromo-N-[5-carbamoyl-1-(4-cyanobenzyl)-1H-pyrazol-4-yl]-2-(trifluoromethyl)quinoline-4-carboxamide]",387 nM
4,"Cc1c(NC(=O)c2cc(C3CC3)nc3ccc(Br)cc23)cnn1Cc1ccc(C#N)cc1 [Example 23, 6-bromo-N-[1-(4-cyanobenzyl)-5-methyl-1H-pyrazol-4-yl]-2-cyclopropylquinoline-4-carboxamide]",2.9 nM
5,"Cc1c(NC(=O)c2cc(C(N)=O)nc3cc(F)ccc23)cnn1Cc1ccc(C#N)cc1 [Example 24, N^4-[1-(4-cyanobenzyl)-5-methyl-1H-pyrazol-4-yl]-7-fluoroquinoline-2,4-dicarboxamide]",7.1 nM
6,"Cc1c(NC(=O)c2cc(C(N)=O)nc3cc(F)c(Cl)cc23)cnn1Cc1ccc(C#N)cc1 [Example 25, 6-chloro-N^4-[1-(4-cyanobenzyl)-5-methyl-1H-pyrazol-4-yl]-7-fluoroquinoline-2,4-dicarboxamide]",6.5 nM
7,"Cc1c(NC(=O)c2cc(C(N)=O)nc3ccccc23)cnn1Cc1ccc(F)c(F)c1 [Example 26, N^4-[1-(3,4-difluorobenzyl)-5-methyl-1H-pyrazol-4-yl]quinoline-2,4-dicarboxamide]",95 nM
8,"Cc1c(NC(=O)c2cc(C(N)=O)nc3ccccc23)cnn1Cc1cccc(F)c1 [Example 27, N^4-[1-(3-fluorobenzyl)-5-methyl-1H-pyrazol-4-yl]quinoline-2,4-dicarboxamide]",52 nM
9,"Cc1c(NC(=O)c2cc(C(N)=O)nc3ccccc23)cnn1CC1CCCCC1 [Example 28, N^4-[1-(cyclohexylmethyl)-5-methyl-1H-pyrazol-4-yl]quinoline-2,4-dicarboxamide]",349 nM
10,"Cc1c(NC(=O)c2cc(C(N)=O)nc3ccccc23)cnn1Cc1ccncc1 [Example 29, N^4-[5-methyl-1-(pyridin-4-ylmethyl)-1H-pyrazol-4-yl]quinoline-2,4-dicarboxamide]",2150 nM
11,"CCc1c(NC(=O)c2cc(C(N)=O)nc3cc(F)ccc23)cnn1Cc1ccc(C#N)cc1 [Example 30, N^4-[1-(4-cyanobenzyl)-5-ethyl-1H-pyrazol-4-yl]-7-fluoroquinoline-2,4-dicarboxamide]",46 nM
12,"CCc1c(NC(=O)c2cc(C(N)=O)nc3ccccc23)cnn1Cc1ccc(C#N)cc1 [Example 31, N^4-[1-(4-cyanobenzyl)-5-ethyl-1H-pyrazol-4-yl]quinoline-2,4-dicarboxamide]",201 nM
13,"CCc1c(NC(=O)c2cc(C(N)=O)nc3cc(F)c(Cl)cc23)cnn1Cc1ccc(C#N)cc1 [Example 32, 6-chloro-N^4-[1-(4-cyanobenzyl)-5-ethyl-1H-pyrazol-4-yl]-7-fluoroquinoline-2,4-dicarboxamide]",43 nM
14,"CC(C)c1c(NC(=O)c2cc(C(N)=O)nc3cc(F)ccc23)cnn1Cc1ccc(C#N)cc1 [Example 33, N^4-[1-(4-cyanobenzyl)-5-isopropyl-1H-pyrazol-4-yl]-7-fluoroquinoline-2,4-dicarboxamide]",940 nM
15,"Cc1c(NC(=O)c2cc(C(N)=O)nc3ccccc23)cnn1Cc1ccn(C)n1 [Example 34, N^4-{5-methyl-1-[(1-methyl-1H-pyrazol-3-yl)methyl]-1H-pyrazol-4-yl}quinoline-2,4-dicarboxamide]",753 nM
16,"CCc1noc(Cn2ncc(NC(=O)c3cc(C(F)(F)F)nc4ccc(Br)cc34)c2C)n1 [Example 35, 6-bromo-N-{1-[(3-ethyl-1,2,4-oxadiazol-5-yl)methyl]-5-methyl-1H-pyrazol-4-yl}-2-(trifluoromethyl)quinoline-4-carboxamide]",1200 nM
